Assay results as given in ChEMBL document CHEMBL1155648, “Three new arylobenzofurans from Onobrychis ebenoides and evaluation of their binding affinity for the estrogen receptor” (J Nat Prod, 2000).

Molecular target: T1, Estrogen receptor (Homo sapiens, UniProt P03372)
T1 sequence (P03372 whole entry): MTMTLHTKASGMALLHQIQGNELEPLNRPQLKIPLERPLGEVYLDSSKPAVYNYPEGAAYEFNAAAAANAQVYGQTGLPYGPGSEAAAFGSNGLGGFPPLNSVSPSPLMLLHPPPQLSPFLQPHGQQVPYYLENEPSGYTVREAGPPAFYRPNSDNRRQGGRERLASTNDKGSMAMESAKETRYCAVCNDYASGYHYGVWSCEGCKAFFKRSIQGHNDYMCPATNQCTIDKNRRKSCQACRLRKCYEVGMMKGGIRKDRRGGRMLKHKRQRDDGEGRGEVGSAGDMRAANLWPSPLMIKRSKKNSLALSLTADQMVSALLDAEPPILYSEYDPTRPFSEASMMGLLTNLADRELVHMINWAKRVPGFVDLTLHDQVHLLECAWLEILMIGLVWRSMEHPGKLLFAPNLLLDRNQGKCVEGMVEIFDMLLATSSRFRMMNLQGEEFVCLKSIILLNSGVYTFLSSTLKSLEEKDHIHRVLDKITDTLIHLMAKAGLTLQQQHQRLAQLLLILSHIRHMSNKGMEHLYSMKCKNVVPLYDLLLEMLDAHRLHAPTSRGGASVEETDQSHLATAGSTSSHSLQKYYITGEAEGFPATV
Experiment: Displacement of [3H]estradiol from estrogen receptor

| IC50 [nM] | SMILES |
| --- | --- |
| 46 | COc1cc2oc(-c3ccc(O)cc3O)cc2cc1O [EBENFURAN I] |
| 43 | COc1cc(O)c2c(C=O)c(-c3ccc(O)cc3O)oc2c1 [EBENFURAN II] |
